Laboratory results taken from patent US9937220B2, “Anti-diabetic nutraceutical composition from palm leaf extract” (priority 2009, dated 2018).

Test system: STZ-induced diabetic rats
Experiment: Body weight of STZ-induced diabetic rats
Assay type: in vivo, rat
Settings: glibenclamide treated group (30 mg/kg)
Experimental: Adult normal and streptozotocin-induced diabetic male Sprague Dawley rats were randomly divided into groups. Palm leaf aqueous and alcoholic extracts (PLE) were fed to normal and STZ-induced diabetic rats at 50-200 mg/kg for 8 weeks. Blood sugar levels from fasting rats were monitored weekly. Untreated rats were used as negative control and glibenclamide (30 mg/kg) treated rats used as positive control.

COc1ccc(Cl)cc1C(=O)NCCc1ccc(S(=O)(=O)NC(=O)NC2CCCCC2)cc1 [glibenclamide] was tested, and the “changes in body weight” value was “Significant changes in body weight”.
